From US9701670B2, “Pyrazolyl-ureas as kinase inhibitors” (RESPIVERT LIMITED, priority 2013, dated 2017)
Marks after values point to notes of the source that are not given here.

Experiments:
[1] = tested on: Salmonella typhimurium, strains TA98 and TA100; experiment: Mutagenicity assessment (bacterial reverse mutation screen); format: cell-based; conditions: TA98 and TA100, presence or absence of S-9 mix, up to 5000 μg/plate
Procedure: Studies were conducted by Sequani (Ledbury, Herefordshire, UK) to assess the compound of Example 77 in vitro for its ability to induce mutations in two histidine dependent auxotrophic mutants of Salmonella typhimurium, strains TA98 and TA100.
The mutation screen was conducted using the plate incorporation method and was performed in both the presence and absence of S-9 mix (a liver post-mitochondrial fraction derived from the livers of Aroclor 1254 treated rats). The bacteria were exposed to the compound of Example 77 dissolved in dimethylsulphoxide, which solvent was also used as the negative control. The dose levels used were 0.32, 1.6, 8, 40, 200, 1000 or 5000 μg/plate.

SCID mice = experiment: (D) Adoptive transfer in mice; format: in vivo, mouse
Procedure: On Study day 0, female Balb/C mice are terminated and spleens obtained for CD45RB^high cell isolation (Using SCID IBD cell Separation protocol). Approximately 4×10^5 cells/mL CD45RB^high cells are then injected IP (100 μL/mouse) into female SCID animals. On study day 14, mice are weighed and randomized into treatment groups based on body weight. On Day 21, compounds are administered BID, via oral gavage, in a peanut oil vehicle at the dose levels outlined below and a dose volume of 5 mL/kg. Treatment continues until study day 42, at which point the animals are necropsied 4 hours after am administration. The colon length and weight is recorded and used as a secondary endpoint in the study as a measurement of colon oedema. The colon is then divided into six cross-sections, four of which are used for histopathology scoring (primary endpoint) and two are homogenised for cytokine analysis. Data shown is the % inhibition of the induction window between naïve animals and vehicle animals, where higher inhibition implies closer to the non-diseased, naïve, phenotype.

[2] = Plasma pharmacokinetics in beagle dogs; format: in vivo, male beagle dogs; conditions: Dog
Procedure: A study was conducted by Sai Life Sciences (Hinjewadi, Pune, India) to investigate the plasma pharmacokinetics of the compound of Example 77 in male beagle dogs following a single intravenous or oral administration.
A group of three male beagle dogs were administered orally with an aqueous suspension formulation (having 2% HPMC and 0.5% Tween 80) of the compound of Example 77, at a dose of 1 mg/kg. In addition, a group of three male beagle dogs were administered intravenously with a solution formulation (in 5% v/v DMSO, 7.5% w/v Solutol HS 15 and 87.5% saline (0.9% w/v NaCl)) of the compound of Example 77, at a dose of 0.05 mg/kg. Blood samples (approximately 1.5 mL) were collected from jugular vein such that the samples were obtained at pre-dose, 0.25, 0.5, 1, 2, 4, 6, 8, and 24 hr (p.o.) and pre-dose, 0.08, 0.25, 0.5, 1, 2, 4, 8, 12, 24 and 32 hr (i.v.) post dose. The blood samples were collected from a set of three dogs at each time point in labelled micro centrifuge tube containing K2EDTA as anticoagulant. Plasma samples were separated by centrifugation at 2500 g for 10 min of whole blood and stored below −70° C. until bioanalysis. All samples were processed for analysis by protein precipitation using acetonitrile and analyzed with LC-MS/MS method (LLOQ=0.50 ng/mL). Pharmacokinetic parameters were calculated using the non-compartmental analysis tool of Phoenix WinNonlin® (Version 6.3).

[3] = Pharmacokinetics and total colon tissue distribution in mice; format: in vivo, male C57BL/6 mice; conditions: male, Mouse, 5 mg/kg p.o.
Procedure: Studies were conducted by Sai Life Sciences (Hinjewadi, Pune, India) to investigate the pharmacokinetics and total colon tissue distribution of the compound of Example 77 in male C57BL/6 mice following a single oral administration.
A group of twenty one male mice were dosed with a suspension formulation (in peanut oil) of the compound of Example 77, at a dose of 5 mg/kg. Blood samples (approximately 60 μL) were collected from retro orbital plexus such that the samples were obtained at 1, 2, 4, 6, 8, 12 and 24 hr. The blood samples were collected from a set of three mice at each time point in labelled micro centrifuge tube containing K2EDTA as anticoagulant. Plasma samples were separated by centrifugation at 4000 rpm for 10 min of whole blood and stored below −70° C. until bioanalysis. After collection of blood sample, animals were humanely euthanized by carbon dioxide asphyxiation to collect total colon tissues. The colons were flushed with cold phosphate buffer saline (pH 7.4) to remove contents. The total colon tissues were homogenized with cold phosphate buffer saline (pH 7.4) of twice the weight of colon tissue and stored below −70° C. Total volume was three times the total colon tissue weights. All samples were processed for analysis by protein precipitation using acetonitrile and analyzed with developed LC-MS/MS method (LLOQ: 2.02 ng/mL in plasma and 1.01 ng/mL in colon tissue). Pharmacokinetic parameters were calculated using the non-compartmental analysis tool of Phoenix WinNonlin® software (version 6.3).

[4] = tested on: Intestinal mucosa biopsies from the inflamed regions of the colon of IBD patients; experiment: (h) Human biopsy assay (cytokine release); format: cell-based
Procedure: Intestinal mucosa biopsies are obtained from the inflamed regions of the colon of IBD patients. The biopsy material is cut into small pieces (2-3 mm) and placed on steel grids in an organ culture chamber at 37° C. in a 5% CO2/95% O2 atmosphere in serum-free media. DMSO control or test compounds at the desired concentration are added to the tissue and incubated for 24 hr in the organ culture chamber. The supernatant is harvested for determination of IL-6, IL-8, […] and TNFα levels by R&D ELISA.

B-Raf (V600e) = B-Raf (V600e) (Homo sapiens (Human), UniProt P15056, V600E); experiment: Enzyme binding assay (KINOMEscan)
Procedure: The kinase enzyme binding activities of compounds disclosed herein were determined using a proprietary assay which measures active site-directed competition binding to an immobilized ligand (Fabian, M. A. et al., Nature Biotechnol., 2005, 23:329-336). These assays were conducted by DiscoverX (formerly Ambit; San Diego, Calif.). The percentage inhibition produced by incubation with a test compound is calculated relative to the non-inhibited control.

[5] = male, beagle, plasma, intravenous 0.05 mg/kg
[6] = C57BL/6, total colon tissue, po, Total colon

B-Raf (V600e), sequence (P15056 whole entry V600E): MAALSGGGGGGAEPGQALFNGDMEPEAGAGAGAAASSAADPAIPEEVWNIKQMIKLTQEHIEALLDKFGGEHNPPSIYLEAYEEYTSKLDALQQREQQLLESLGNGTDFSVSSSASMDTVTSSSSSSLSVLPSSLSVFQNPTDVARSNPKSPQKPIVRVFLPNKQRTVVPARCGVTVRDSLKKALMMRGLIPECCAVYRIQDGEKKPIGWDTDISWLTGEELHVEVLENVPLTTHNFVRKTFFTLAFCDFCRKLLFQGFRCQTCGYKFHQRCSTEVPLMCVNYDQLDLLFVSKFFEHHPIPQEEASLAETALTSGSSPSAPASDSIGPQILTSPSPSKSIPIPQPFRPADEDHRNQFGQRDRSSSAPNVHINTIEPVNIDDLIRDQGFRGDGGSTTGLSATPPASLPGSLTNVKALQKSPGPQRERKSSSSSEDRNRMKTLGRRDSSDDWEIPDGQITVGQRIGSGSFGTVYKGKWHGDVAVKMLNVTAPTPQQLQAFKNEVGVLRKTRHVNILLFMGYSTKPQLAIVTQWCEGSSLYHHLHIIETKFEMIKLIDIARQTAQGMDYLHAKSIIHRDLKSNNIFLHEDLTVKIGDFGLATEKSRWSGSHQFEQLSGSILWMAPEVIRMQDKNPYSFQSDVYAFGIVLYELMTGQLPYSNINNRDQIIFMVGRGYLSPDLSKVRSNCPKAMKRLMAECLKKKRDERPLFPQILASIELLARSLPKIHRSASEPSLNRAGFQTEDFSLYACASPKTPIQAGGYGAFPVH

C#Cc1cc(Nc2nccc(Oc3ccc(NC(=O)Nc4cc(C(C)(C)C)nn4-c4ccc(OC)cc4)c4ccccc34)n2)cc(C(=O)NCCN2CCOCC2)c1 [Example 77, 3-((4-((4-(3-(3-(tert-Butyl)-1-(4-methoxyphenyl)-1H-pyrazol-5-yl)ureido)-naphthalen-1-yl)oxy)pyrimidin-2-yl)amino)-5-ethynyl-N-(2-morpholinoethyl)benzamide]
ability to induce mutations (revertant colonies) [1]: no dose-related or statistically significant increases in revertant colonies | ratio of colon weight:length and relative inhibition of cytokine release (SCID mice; adoptive transfer model of colonic inflammation): significant activity | % inhibition of IL-8 release (SCID mice; adoptive transfer mouse model, 5 mg/kg BID oral): 68% | % Inhibition of colon weight:length (SCID mice; adoptive transfer mouse model, 5 mg/kg BID oral, P < 0.05 ANOVA to vehicle): 51%* | plasma exposure after oral administration ([2]; 1 mg/kg p.o.): no plasma exposure at all was observed | Fpo ([2]; 1 mg/kg p.o., Plasma): 0% | AUC(0-inf) [2, 5]: 37 ng·h/mL | AUC(0-t) [2, 5]: 33.6 ng·h/mL | C0 [2, 5]: 283 ng/mL | Vd [2, 5]: 1.8 L/kg | clearance [2, 5]: 25.4 mL/min/kg | half-life [2, 5]: 2.5 h | AUC(0-inf) ([3]; C57BL/6, po, Plasma): 29 ng·h/mL | AUC(0-t) ([3]; C57BL/6, po, Plasma): 22 ng·h/mL | Cmax ([3]; C57BL/6, po, Plasma): 3.5 ng/mL | Tmax ([3]; C57BL/6, po, Plasma): 1 h | AUC(0-inf) [3, 6]: 9280 ng·h/mL | AUC(0-t) [3, 6]: 7480 ng·h/mL | Cmax [3, 6]: 1070 ng/mL | Tmax [3, 6]: 4 h | Cytokine release from biopsies of UC patients IL-1b release ([4]; 1 μg/mL, DMSO control 100%): 26 ± 16% | Cytokine release from biopsies of UC patients IL-6 release ([4]; 1 μg/mL, DMSO control 100%): 67 ± 128% | Cytokine release from biopsies of UC patients IL-8 release ([4]; 1 μg/mL, DMSO control 100%): 36 ± 117% | cytokine release from biopsies from ulcerative colitis (UC) patients ([4]; added to biopsies in vitro): markedly reduced IL-1b, IL-6 and IL-8 release | effect on the binding of the kinase B-Raf (V600e) to its standard ligand (B-Raf (V600e)): did not have any effect
